Measured values taken from patent US7374901B2, “Method of analyzing coenzyme Q-10 and two-electron reduction product thereof and analysis system” (Shiseido Company Ltd., priority 2002, dated 2008).

Legend:
[1] = Storage stability of isopropyl alcohol extracted liquid from human blood plasma (FIG. 5); format: physicochemical; conditions: isopropyl alcohol extract of human blood plasma, stored at around 4° C., even after at least 11 hours
Method: 50 μl of human blood plasma as a specimen is sampled (S-1 in FIG. 4), 950 μl of isopropyl alcohol is added into it (S-2 in FIG. 4), and then they are mixed sufficiently. Subsequently, they are subjected to a centrifugal separator at a rotational speed of 12,000 rpm for 3 minutes and at a temperature of 4° C. Thus, coenzyme Q-10 and a 2-electron reduced form thereof are extracted from the specimen into an isopropyl alcohol phase (S-3 in FIG. 4).
When an extracted liquid into which the coenzyme Q-10, etc., has been extracted is stored at a temperature around 4° C. […] Thus, the alteration of a stored analytical sample can be prevented. Additionally, the longitudinal axis in regard to coenzyme Q-10 in FIG. 5(b) represents the ratio (molar-ratio) of the coenzyme Q-10 occupied in the total quantity of the coenzyme Q-10 and the 2-electron reduced form thereof.

[2] = Storage stability of methanol/hexane extraction liquid, conventional pretreatment (FIG. 3); format: physicochemical; conditions: various storage temperatures (FIG. 3)
Method: In this case, since the measurement is influenced by a water-soluble antioxidation substance in the specimen, such as vitamin C and uric acid, etc., a pretreatment is performed for subjecting the specimen to an extraction treatment with methanol/hexane so as to distribute the water-soluble antioxidation substance into a methanol phase and the coenzyme Q-10, etc., into a hexane phase.
It is therefore necessary to perform analysis immediately after the extraction of the specimen. […] Herein, each temperature indicates a storage temperature of the hexane extraction liquid in FIG. 3.

SMILES: COc1c(O)c(C)c(C/C=C(\C)CC/C=C(\C)CC/C=C(\C)CC/C=C(\C)CC/C=C(\C)CC/C=C(\C)CC/C=C(\C)CC/C=C(\C)CC/C=C(\C)CCC=C(C)C)c(O)c1OC [2-electron reduced form of coenzyme Q-10]
- oxidation of the 2-electron reduced form during storage of the extracted liquid [1]: rarely oxidized
- stability / oxidation in the hexane extraction liquid after pretreatment until injection into HPLC [2]: oxidized at a substantial rate

SMILES: COC1=C(OC)C(=O)C(C/C=C(\C)CC/C=C(\C)CC/C=C(\C)CC/C=C(\C)CC/C=C(\C)CC/C=C(\C)CC/C=C(\C)CC/C=C(\C)CC/C=C(\C)CCC=C(C)C)=C(C)C1=O [coenzyme Q-10, 2,3-dimethoxy-5-methyl-6-polyprenyl-1,4-benzoquinone]
- stability / oxidation in the hexane extraction liquid after pretreatment until injection into HPLC [2]: chemically unstable
